Test results as given in patent US20250197407A1 (Jazz Pharmaceuticals Ireland Limited, priority 2022, published 2025).

Molecular target: SOS1/KRAS WT (Homo sapiens (Human), UniProt Q07889)
Assay: SOS1/KRAS WT HTRF binding assay (FRET-based protein-protein interaction)
Conditions: inhibition of His6-SOS1 (aa564-1049, 40 nM) binding to GST-KRAS-WT (aa1-188, 40 nM); at least two independent replicates; read-out: SOS1/KRAS WT HTRF Binding assay pIC50 (converted)
Procedure, shortened: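 GST-KRAS WT (aa1-188, 40 nM) and His6-SOS1 exchange domain (aa564-1049, 40 nM) were incubated 60 min at room temperature with compound dose response in HEPES pH7.3 buffer with 10 mM EDTA and 100 mM KF. Anti-GST-Eu(K)/anti-6His-XL665 HTRF was read after 4 hr, and IC50 came from a four-parameter fit (≥2 replicates).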

Sequence of SOS1/KRAS WT (Q07889 564-1049): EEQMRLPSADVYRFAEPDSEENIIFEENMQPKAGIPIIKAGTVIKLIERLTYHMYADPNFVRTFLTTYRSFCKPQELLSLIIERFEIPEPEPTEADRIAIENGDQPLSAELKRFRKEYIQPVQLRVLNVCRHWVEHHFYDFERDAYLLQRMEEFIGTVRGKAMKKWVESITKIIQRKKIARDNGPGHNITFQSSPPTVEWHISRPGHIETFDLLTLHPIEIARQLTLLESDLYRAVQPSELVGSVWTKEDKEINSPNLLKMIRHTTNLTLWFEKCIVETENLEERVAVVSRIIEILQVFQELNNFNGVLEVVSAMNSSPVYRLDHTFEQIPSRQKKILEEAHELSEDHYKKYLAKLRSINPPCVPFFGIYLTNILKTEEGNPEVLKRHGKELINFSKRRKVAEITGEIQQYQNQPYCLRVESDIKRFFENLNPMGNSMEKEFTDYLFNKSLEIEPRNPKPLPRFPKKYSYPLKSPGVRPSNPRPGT

Compound | IC50 [nM]
Cc1c([C@@H](C)Nc2nnc(C)c3cc4c(cc23)N(C)C(=O)C4(C)C)cccc1C(F)(F)C(C)(C)O [Compound 108, 1,3,3,5-tetramethyl-8-[[(1R)-1-[3-(1,1-difluoro-2-hydroxy-2-methyl-propyl)-2-methyl-phenyl]ethyl]amino]pyrrolo[2,3-g]phthalazin-2-one] | 10.5
Cc1nnc(N[C@H](C)c2cccc(C(F)(F)CO)c2F)c2cc3c(cc12)C(C)(C)C(=O)N3C [Compound 109, 1,3,3,5-tetramethyl-8-[[(1R)-1-[3-(1,1-difluoro-2-hydroxy-ethyl)-2-fluoro-phenyl]ethyl]amino]pyrrolo[2,3-g]phthalazin-2-one] | 7.08
Cc1nnc(N[C@H](C)c2cccc(C(F)(F)CO)c2F)c2cc3c(cc12)C(C)(C)C(=O)N3C(C)C [Compound 110, 1-isopropyl-3,3,5-trimethyl-8-[[(1R)-1-[3-(1,1-difluoro-2-hydroxy-ethyl)-2-fluoro-phenyl]ethyl]amino]pyrrolo[2,3-g]phthalazin-2-one] | 7.08
Cc1nnc(N[C@H](C)c2cccc(C(F)(F)C(C)(C)O)c2F)c2cc3c(cc12)C(C)(C)C(=O)N3C(C)C [Compound 111, 1-isopropyl-3,3,5-trimethyl-8-[[(1R)-1-[3-(1,1-difluoro-2-hydroxy-2-methyl-propyl)-2-fluoro-phenyl]ethyl]amino]pyrrolo[2,3-g]phthalazin-2-one] | 7.41
Cc1nnc(N[C@H](C)c2cccc(C(F)(F)CO)c2)c2cc3c(cc12)C1(CCOCC1)C(=O)N3C1CC1 [Compound 112, 1-cyclopropyl-5-methyl-8-[[(1R)-1-[3-(1,1-difluoro-2-hydroxy-ethyl)phenyl]ethyl]amino]spiro [pyrrolo[2,3-g]phthalazine-3,4′-tetrahydropyran]-2-one] | 11
COCC1(C)C(=O)N(C)c2cc3c(N[C@H](C)c4cccc(C(F)(F)C(C)(C)O)c4C)nnc(C)c3cc21 (stereo partly drawn) [Compound 113, 8-[[(1R)-1-[3-(1,1-difluoro-2-hydroxy-2-methyl-propyl)-2-methyl-phenyl]ethyl]amino]-3-(methoxymethyl)-1,3,5-trimethyl-pyrrolo[3,2-g]phthalazin-2-one] | 13.5
Cc1nnc(N[C@H](C)c2cccc(C(F)(F)CO)c2F)c2cc3c(cc12)C1(CCOCC1)C(=O)N3C1CC1 [Compound 114, 1-cyclopropyl-5-methyl-8-[[(1R)-1-[3-(1,1-difluoro-2-hydroxy-ethyl)-2-fluoro-phenyl]ethyl]amino]spiro[pyrrolo [2,3-g]phthalazine-3,4′-tetrahydropyran]-2-one] | 9.12
Cc1nnc(N[C@H](C)c2cccc(C(F)(F)C(C)(C)O)c2F)c2cc3c(cc12)N(C)C(=O)C31CCOCC1 [Compound 115, 1,8-dimethyl-5-[[(1R)-1-[3-(1,1-difluoro-2-hydroxy-2-methyl-propyl)-2-fluoro-phenyl]ethyl]amino]spiro[pyrrolo[3,2-g]phthalazine-3,4′-tetrahydropyran]-2-one] | 6.61
Cc1nnc(N[C@H](C)c2cccc(C(F)(F)CO)c2F)c2cc3c(cc12)N(C)C(=O)C31CCOCC1 [Compound 116, 1,8-dimethyl-5-[[(1R)-1-[3-(1,1-difluoro-2-hydroxy-ethyl)-2-fluoro-phenyl]ethyl]amino]spiro[pyrrolo [3,2-g]phthalazine-3,4′-tetrahydropyran]-2-one] | 6.61
COC1(C)C(=O)N(C2CC2)c2cc3c(N[C@H](C)c4cccc(C(F)(F)C(C)(C)O)c4)nnc(C)c3cc21 (stereo partly drawn) [Compound 117, 1-cyclopropyl-3-methoxy-3,5-dimethyl-8-[[(1R)-1-[3-(1,1-difluoro-2-hydroxy-2-methyl-propyl)phenyl]ethyl]amino]pyrrolo [2,3-g]phthalazin-2-one] | 9.55
Cc1nnc(N[C@H](C)c2cccc(C(F)(F)CN)c2F)c2cc3c(cc12)C(C)(C)C(=O)N3C [Compound 118, 1,3,3,5-tetramethyl-8-[[(1R)-1-[3-(2-amino-1,1-difluoro-ethyl)-2-fluoro-phenyl]ethyl]amino]pyrrolo[2,3-g]phthalazin-2-one] | 11.5
Cc1c([C@@H](C)Nc2nnc(C)c3cc4c(cc23)N(C2CC2)C(=O)C42CCOCC2)cccc1C(F)(F)CO [Compound 119, 1-cyclopropyl-5-methyl-8-[[(1R)-1-[3-(1,1-difluoro-2-hydroxy-ethyl)-2-methyl-phenyl]ethyl]amino]spiro[pyrrolo [2,3-g]phthalazine-3,4′-tetrahydropyran]-2-one] | 7.41
Cc1nnc(N[C@H](C)c2cccc(C(F)(F)C(C)(C)O)c2)c2cc3c(cc12)C1(CCOCC1)C(=O)N3C1CC1 [Compound 120, 1-cyclopropyl-5-methyl-8-[[(1R)-1-[3-(1,1-difluoro-2-hydroxy-2-methyl-propyl)phenyl]ethyl]amino]spiro [pyrrolo[2,3-g]phthalazine-3,4′-tetrahydropyran]-2-one] | 10.5
Cc1nnc(N[C@H](C)c2cccc(C(F)(F)C(C)(C)O)c2F)c2cc3c(cc12)C1(CCOCC1)C(=O)N3C1CC1 [Compound 121, 1-cyclopropyl-5-methyl-8-[[(1R)-1-[3-(1,1-difluoro-2-hydroxy-2-methyl-propyl)-2-fluoro-phenyl]ethyl]amino]spiro[pyrrolo [2,3-g]phthalazine-3,4′-tetrahydropyran]-2-one] | 6.31
COC1(C)C(=O)N(C2CC2)c2cc3c(N[C@H](C)c4cccc(C(F)(F)CO)c4F)nnc(C)c3cc21 (stereo partly drawn) [Compound 122, 1-cyclopropyl-3-methoxy-3,5-dimethyl-8-[[(1R)-1-[3-(1,1-difluoro-2-hydroxy-ethyl)-2-fluoro-phenyl]ethyl]amino]pyrrolo[2,3-g]phthalazin-2-one] | 5.75

Other lines, results leading:

IC50 [nM] | Compound
8.71 | Cc1nnc(N[C@H](C)c2cccc(C(F)(F)CO)c2F)c2cc3c(cc12)C(C)(C)C(=O)N3C1CC1 [Compound 123, 1-cyclopropyl-3,3,5-trimethyl-8-[[(1R)-1-[3-(1,1-difluoro-2-hydroxy-ethyl)-2-fluoro-phenyl]ethyl]amino]pyrrolo[2,3-g]phthalazin-2-one]
6.17 | Cc1c([C@@H](C)Nc2nnc(C)c3cc4c(cc23)N(C(C)C)C(=O)C4(C)C)cccc1C(F)(F)C(C)(C)O [Compound 124, 1-isopropyl-3,3,5-trimethyl-8-[[(1R)-1-[3-(1,1-difluoro-2-hydroxy-2-methyl-propyl)-2-methyl-phenyl]ethyl]amino]pyrrolo[2,3-g]phthalazin-2-one]
6.61 | Cc1nnc(N[C@H](C)c2cccc(C(F)(F)C(C)(C)O)c2)c2cc3c(cc12)N(C)C(=O)C31CCOCC1 [Compound 125, 1,8-dimethyl-5-[[(1R)-1-[3-(1,1-difluoro-2-hydroxy-2-methyl-propyl)phenyl]ethyl]amino]spiro [pyrrolo[3,2-g]phthalazine-3,4′-tetrahydropyran]-2-one]
9.12 | CCOC1(C)C(=O)N(C)c2cc3c(N[C@H](C)c4cccc(C(F)(F)C(C)(C)O)c4C)nnc(C)c3cc21 (stereo partly drawn) [Compound 126, 3-ethoxy-1,3,5-trimethyl-8-[[(1R)-1-[3-(1,1-difluoro-2-hydroxy-2-methyl-propyl)-2-methyl-phenyl]ethyl]amino]pyrrolo[2,3-g]phthalazin-2-one]
12.9 | Cc1c([C@@H](C)Nc2nnc(C)c3cc4c(cc23)N(C2CC2)C(=O)C4(C)C)cccc1C(F)(F)C(C)(C)O [Compound 127, 1-cyclopropyl-3,3,5-trimethyl-8-[[(1R)-1-[3-(1,1-difluoro-2-hydroxy-2-methyl-propyl)-2-methyl-phenyl]ethyl]amino]pyrrolo[2,3-g]phthalazin-2-one]
6.31 | Cc1nnc(N[C@H](C)c2cccc(C(F)(F)CO)c2)c2cc3c(cc12)N(C)C(=O)C31CCOCC1 [Compound 128, 1,8-dimethyl-5-[[(1R)-1-[3-(1,1-difluoro-2-hydroxy-ethyl)phenyl]ethyl]amino]spiro [pyrrolo[3,2-g]phthalazine-3,4′-tetrahydropyran]-2-one]
6.61 | Cc1c([C@@H](C)Nc2nnc(C)c3cc4c(cc23)C2(CCOCC2)C(=O)N4C)cccc1C(F)(F)CO [Compound 129, 1,8-dimethyl-5-[[(1R)-1-[3-(1,1-difluoro-2-hydroxy-ethyl)-2-methyl-phenyl]ethyl]amino]spiro[pyrrolo [3,2-g]phthalazine-3,4′-tetrahydropyran]-2-one]
7.94 | Cc1c([C@@H](C)Nc2nnc(C)c3cc4c(cc23)C2(CCOCC2)C(=O)N4C)cccc1C(F)(F)C(C)(C)O [Compound 131, 1,8-dimethyl-5-[[(1R)-1-[3-(1,1-difluoro-2-hydroxy-2-methyl-propyl)-2-methyl-phenyl]ethyl]amino]spiro[pyrrolo [3,2-g]phthalazine-3,4′-tetrahydropyran]-2-one]
7.94 | CCOC1(C)C(=O)N(C)c2cc3c(N[C@H](C)c4cccc(C(F)(F)C(C)(C)O)c4F)nnc(C)c3cc21 (stereo partly drawn) [Compound 132, 3-ethoxy-1,3,5-trimethyl-8-[[(1R)-1-[3-(1,1-difluoro-2-hydroxy-2-methyl-propyl)-2-fluoro-phenyl]ethyl]amino]pyrrolo[2,3-g]phthalazin-2-one]
8.51 | CCOC1(C)C(=O)N(C)c2cc3c(N[C@H](C)c4cccc(C(F)(F)CO)c4)nnc(C)c3cc21 (stereo partly drawn) [Compound 133, 3-ethoxy-1,3,5-trimethyl-8-[[(1R)-1-[3-(1,1-difluoro-2-hydroxy-ethyl)phenyl]ethyl]amino]pyrrolo [2,3-g]phthalazin-2-one]
6.17 | CCOC1(C)C(=O)N(C)c2cc3c(N[C@H](C)c4cccc(C(F)(F)CO)c4C)nnc(C)c3cc21 (stereo partly drawn) [Compound 134, 3-ethoxy-1,3,5-trimethyl-8-[[(1R)-1-[3-(1,1-difluoro-2-hydroxy-ethyl)-2-methyl-phenyl]ethyl]amino]pyrrolo[2,3-g]phthalazin-2-one]
